In brackets after ≈: the same amount, converted by molar mass. Where two headings read alike, the source gives them in different places.
Tests used:
H. pylori [1] = assay: Anti H. pylori screening by disc diffusion susceptibility assay; format: cell-based, Helicobacter pylori; details: for Inhibition zone diameter (score): 100 and 200 mg/disc (so in the source); for Inhibition zone diameter (score) / zone of inhibition at 100 µg/disc: 72 h; for zone of inhibition at 100 µg/disc: Helicobacter pylori, 100 and 200 μg/disc, majority of the strains, read-out: Activity class by inhibition zone diameter
Method: The discs were impregnated with […] of each of the compounds, dissolved either in ethanol or DMSO, and the zone of inhibition was measured after 72 h of growth under microaerophilic conditions at 37° C. Inhibition zone diameter ranging 10-20 mm was given a score of ^+, 20-30 mm as ^++ and that of >30 mm as ^+++, as obtained employing dose range of […]/disc. The detailed structural information of the molecules is provided under ‘Description of the Compounds’.
Methods and protocols for the determination of inhibition zone diameter are as stated under Experiment 1, and that of MIC values by microbroth dilution assay as in Experiment 3. ‘Nil’ means zone of inhibition below 10 mm.
The anti H. pylori activity of all 16 flavonoid molecules, 2 naturally isolated and 14 synthetic derivatives, was screened by disc diffusion sensitivity assay employing 2 clinical strains HP001 and HP002, and three standard strains ATCC® 700392, 43504 and 49503. A 0.5 mL inoculum (10^8 CFU/mL) for each bacterial strain tested was flooded on freshly prepared Brain Heart Infusion (BHI) agar plates supplemented with 7% FCS, 0.5% IsoVitalex and 0.0025% DENT® and the discs (5 mm diameter) containing different compounds or antibiotics (dissolved either in ethanol or DMSO) were placed on the agar surface. After incubation for 3 days in a microaerophilic atmosphere at 37° C., the diameter of the zone of inhibition was measured (Glupczynsky, 1996; McNulty et al., 2002).

H. pylori [2] = assay: Anti H. pylori spectrum (MIC) by agar dilution method; format: cell-based, Helicobacter pylori; details: for MIC50 / MIC: Helicobacter pylori; for MIC50: MIC against 50% of the strains of the panel, read-out: MIC50
Method: MIC was determined using agar dilution assay following the CLSI® guidelines. Six clinical isolates and four standard strains were used for this study. Five microlitre of freshly grown 3-day old culture (˜1×10^8 CFU/mL) was streaked in plates containing 2-fold serial dilution of the compounds ranging […], and incubated under microaerophilic condition at 37° C. After 72 h, the plates were inspected visually for absence of growth to assess the MIC values. The experiment was performed in duplicates. MIC50 is defined as the dose (μg/ml) required for killing 50% of the strains.
Plates contained two-fold serial dilutions of the compounds ranging from […]. Five microlitres of 3-day old freshly grown H. pylori culture (^˜10^8 CFU/mL) was inoculated onto drug-containing BHI agar plates supplemented with 7% FCS, 0.5% IsoVitalex and 0.0025% DENT®, which were then incubated for 3 days under microaerophilic condition at 37° C.

[3] = 72 h, panel of 6 clinical isolates and 4 standard strains, read-out: MIC Range
[4] = clinical strain HP001, read-out: MIC
[5] = clinical strain HP002, read-out: MIC
[6] = clinical strain HP003, read-out: MIC
[7] = clinical strain HP004, read-out: MIC
[8] = clinical strain HP005, read-out: MIC
[9] = clinical strain HP006, read-out: MIC
[10] = standard strain 43504, read-out: MIC
[11] = standard strain 43629, read-out: MIC
[12] = standard strain 49503, read-out: MIC
[13] = standard strain 700392, read-out: MIC
[14] = panel of 6 clinical isolates and 4 standard strains

| SMILES | Inhibition zone diameter (score) (H. pylori [1]; ATCC standard strain 43504) | Inhibition zone diameter (score) (H. pylori [1]; ATCC standard strain 49503) | Inhibition zone diameter (score) (H. pylori [1]; ATCC standard strain 700392) | zone of inhibition at 100 µg/disc (H. pylori [1]) | Inhibition zone diameter (score) (H. pylori [1]; clinical strain HP001) | Inhibition zone diameter (score) (H. pylori [1]; clinical strain HP002) | MIC50 (H. pylori [2]; 72 h) | MIC (H. pylori [2]; [3]) | MIC50 (H. pylori [2]) | MIC (H. pylori [2]; [4]) | MIC (H. pylori [2]; [5]) | MIC (H. pylori [2]; [6]) | MIC (H. pylori [2]; [7]) | MIC (H. pylori [2]; [8]) | MIC (H. pylori [2]; [9]) | MIC (H. pylori [2]; [10]) | MIC (H. pylori [2]; [11]) | MIC (H. pylori [2]; [12]) | MIC (H. pylori [2]; [13]) | also measured |
| --- | --- | --- | --- | --- | --- | --- | --- | --- | --- | --- | --- | --- | --- | --- | --- | --- | --- | --- | --- | --- |
| CN(C)CCCOc1cc(O)c2c(=O)cc(-c3ccccc3)oc2c1 [CHN-2, 7-(3-Dimethylamino-propoxy)-5-hydroxy-2-phenyl-chromen-4-one] | ++ (20-30 mm as ^++) | ++ (20-30 mm as ^++) | + (Inhibition zone diameter ranging 10-20 mm was given a score of ^+) | 20 to 30 mm | ++ (20-30 mm as ^++) | ++ (20-30 mm as ^++) | ~25 µg/mL (≈ 73.7 µM) | 6.25 to 25 µg/mL (≈ 18.4 to 73.7 µM) | 25 µg/mL (≈ 73.7 µM) | 25 µg/mL (≈ 73.7 µM) | 25 µg/mL (≈ 73.7 µM) | 12.5 µg/mL (≈ 36.8 µM) | 12.5 µg/mL (≈ 36.8 µM) | 25 µg/mL (≈ 73.7 µM) | 25 µg/mL (≈ 73.7 µM) | 50 µg/mL (≈ 147 µM) | 12.5 µg/mL (≈ 36.8 µM) | 25 µg/mL (≈ 73.7 µM) | 50 µg/mL (≈ 147 µM) | MIC Range (H. pylori [2]; [14]): 12.5 to 50 µg/mL |
| O=c1cc(-c2ccccc2)oc2cc(OCCCN3CCCCC3)cc(O)c12 [CPP-2, 5-Hydroxy-2-phenyl-7-(3-piperidin-1-yl-propoxy)-chromen-4-one] | + (Inhibition zone diameter ranging 10-20 mm was given a score of ^+) | + (Inhibition zone diameter ranging 10-20 mm was given a score of ^+) | + (Inhibition zone diameter ranging 10-20 mm was given a score of ^+) | – | + (Inhibition zone diameter ranging 10-20 mm was given a score of ^+) | + (Inhibition zone diameter ranging 10-20 mm was given a score of ^+) | ~12.5 µg/mL (≈ 32.9 µM) | 6.25 to 100 µg/mL (≈ 16.5 to 264 µM) | 12.5 µg/mL (≈ 32.9 µM) | 25 µg/mL (≈ 65.9 µM) | 25 µg/mL (≈ 65.9 µM) | < 12.5 µg/mL | < 12.5 µg/mL | < 12.5 µg/mL | < 12.5 µg/mL | 12.5 µg/mL (≈ 32.9 µM) | 100 µg/mL (≈ 264 µM) | 25 µg/mL (≈ 65.9 µM) | 25 µg/mL (≈ 65.9 µM) | – |
| CN1CCN(CCCCOc2cc(O)c3c(=O)cc(-c4ccccc4)oc3c2)CC1 [NMC-3, 5-Hydroxy-7-[4-(4-methyl-piperazin-1-yl)-butoxy]-2-phenyl-chromen-4-one] | + (Inhibition zone diameter ranging 10-20 mm was given a score of ^+) | + (Inhibition zone diameter ranging 10-20 mm was given a score of ^+) | + (Inhibition zone diameter ranging 10-20 mm was given a score of ^+) | – | + (Inhibition zone diameter ranging 10-20 mm was given a score of ^+) | ++ (20-30 mm as ^++) | ~25 µg/mL (≈ 61.2 µM) | 6.25 to 25 µg/mL (≈ 15.3 to 61.2 µM) | 25 µg/mL (≈ 61.2 µM) | 25 µg/mL (≈ 61.2 µM) | 25 µg/mL (≈ 61.2 µM) | < 12.5 µg/mL | < 12.5 µg/mL | < 12.5 µg/mL | < 12.5 µg/mL | 25 µg/mL (≈ 61.2 µM) | 25 µg/mL (≈ 61.2 µM) | 25 µg/mL (≈ 61.2 µM) | 25 µg/mL (≈ 61.2 µM) | – |
| CC1(C)S[C@@H]2[C@H](NC(=O)[C@H](N)c3ccc(O)cc3)C(=O)N2[C@H]1C(=O)O [Amoxicillin, reference compound] | – | – | – | – | – | – | – | 0.016 to 0.0625 µg/mL (≈ 0.0438 to 0.171 µM) | 0.032 µg/mL (≈ 0.0876 µM) | 0.032 µg/mL (≈ 0.0876 µM) | 0.032 µg/mL (≈ 0.0876 µM) | 0.016 µg/mL (≈ 0.0438 µM) | 0.016 µg/mL (≈ 0.0438 µM) | 0.016 µg/mL (≈ 0.0438 µM) | 0.016 µg/mL (≈ 0.0438 µM) | 0.0625 µg/mL (≈ 0.171 µM) | 0.032 µg/mL (≈ 0.0876 µM) | 0.032 µg/mL (≈ 0.0876 µM) | 0.0625 µg/mL (≈ 0.171 µM) | inhibition zone diameter (H. pylori [1]; clinical strains, 0.16 mg/disc): 10-16 mm; inhibition zone diameter (H. pylori [1]; standard strains, 0.5-1.0 mg/disc): 13-15 mm |
| CN(C)CCCCOc1cc(O)c2c(=O)cc(-c3ccccc3)oc2c1 [CHN-3, 7-(4-Dimethylamino-butoxy)-5-hydroxy-2-phenyl-chromen-4-one] | + (Inhibition zone diameter ranging 10-20 mm was given a score of ^+) | ++ (20-30 mm as ^++) | + (Inhibition zone diameter ranging 10-20 mm was given a score of ^+) | 20 to 30 mm | ++ (20-30 mm as ^++) | ++ (20-30 mm as ^++) | ~25 µg/mL (≈ 70.7 µM) | 6.25 to 25 µg/mL (≈ 17.7 to 70.7 µM) | 25 µg/mL (≈ 70.7 µM) | 25 µg/mL (≈ 70.7 µM) | 25 µg/mL (≈ 70.7 µM) | < 12.5 µg/mL | < 12.5 µg/mL | < 12.5 µg/mL | < 12.5 µg/mL | 25 µg/mL (≈ 70.7 µM) | 25 µg/mL (≈ 70.7 µM) | 25 µg/mL (≈ 70.7 µM) | 25 µg/mL (≈ 70.7 µM) | – |
| O=c1cc(-c2ccccc2)oc2cc(OCCCCCCN3CCOCC3)cc(O)c12 [CHM-1, 5-Hydroxy-7-(6-morpholin-4-yl-hexyloxy)-2-phenyl-chromen-4-one] | Nil (‘Nil’ means zone of inhibition below 10 mm) | + (Inhibition zone diameter ranging 10-20 mm was given a score of ^+) | + (Inhibition zone diameter ranging 10-20 mm was given a score of ^+) | – | + (Inhibition zone diameter ranging 10-20 mm was given a score of ^+) | + (Inhibition zone diameter ranging 10-20 mm was given a score of ^+) | ~25 µg/mL (≈ 59 µM) | 6.25 to 25 µg/mL (≈ 14.8 to 59 µM) | 25 µg/mL (≈ 59 µM) | 25 µg/mL (≈ 59 µM) | 25 µg/mL (≈ 59 µM) | < 12.5 µg/mL | < 12.5 µg/mL | < 12.5 µg/mL | < 12.5 µg/mL | 25 µg/mL (≈ 59 µM) | 25 µg/mL (≈ 59 µM) | 25 µg/mL (≈ 59 µM) | 25 µg/mL (≈ 59 µM) | – |
| Cc1ncc([N+](=O)[O-])n1CCO [Metronidazole, reference compound] | – | – | – | – | – | – | – | – | 50 µg/mL (≈ 292 µM) | – | > 100 µg/mL | 100 µg/mL (≈ 584 µM) | 100 µg/mL (≈ 584 µM) | 25 µg/mL (≈ 146 µM) | 25 µg/mL (≈ 146 µM) | 50 µg/mL (≈ 292 µM) | 1.56 µg/mL (≈ 9.11 µM) | 1.56 µg/mL (≈ 9.11 µM) | 1.56 µg/mL (≈ 9.11 µM) | – |
| O=c1cc(-c2ccccc2)oc2cc(OCCCCN3CCOCC3)cc(O)c12 [CHM-3, 5-Hydroxy-7-(4-morpholin-4-yl-butoxy)-2-phenyl-chromen-4-one] | + (Inhibition zone diameter ranging 10-20 mm was given a score of ^+) | ++ (20-30 mm as ^++) | + (Inhibition zone diameter ranging 10-20 mm was given a score of ^+) | 20 to 30 mm | ++ (20-30 mm as ^++) | ++ (20-30 mm as ^++) | 50 µg/mL (≈ 126 µM) | 50 to 100 µg/mL (≈ 126 to 253 µM) | 50 µg/mL (≈ 126 µM) | 50 µg/mL (≈ 126 µM) | 50 µg/mL (≈ 126 µM) | 100 µg/mL (≈ 253 µM) | 100 µg/mL (≈ 253 µM) | 100 µg/mL (≈ 253 µM) | 100 µg/mL (≈ 253 µM) | 50 µg/mL (≈ 126 µM) | 100 µg/mL (≈ 253 µM) | 50 µg/mL (≈ 126 µM) | 50 µg/mL (≈ 126 µM) | MIC Range (H. pylori [2]; [14]): 50 to 100 µg/mL |

— patent US9642854B2, “Flavanoid compounds and process for preparation thereof” (Council of Scientific & Industrial Research, priority 2009, dated 2017)
